4 cell lines from the supplement of paper PMC10307832 can be followed below.

Common to all, as to assay: relative viability (nuclei count vs DMSO), 5 days (fraction); higher = more cells survive
Compound in the assay “CUDC-101 + Dasatinib”: C#Cc1cccc(Nc2ncnc3cc(OC)c(OCCCCCCC(=O)NO)cc23)c1 [CUDC-101] + Cc1nc(Nc2ncc(C(=O)Nc3c(C)cccc3Cl)s2)cc(N2CCN(CCO)CC2)n1 [Dasatinib] (partner 0.075 µM)
An outline of the steps:
(§1)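 One day after seeding in 1536-well plates, lung cancer cell lines were dosed by pin tool. Dosing was either single-drug or a fixed anchor-drug dose plus five library-drug doses (not always all listed) in √10 steps. After 5 days, nuclei were stained in one fix-and-stain step and counted on 4× images, and relative viability is the nuclei count of treated wells over that of vehicle wells, given as the median of duplicate plates.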

Compound in the assay “Vandetanib + Palbociclib”: COc1cc2/c(=N/c3ccc(Br)cc3F)nc[nH]c2cc1OCC1CCN(C)CC1 [Vandetanib] + CC(=O)c1c(C)c2cnc(Nc3ccc(N4CCNCC4)cn3)nc2n(C2CCCC2)c1=O [Palbociclib] (partner 0.5 µM)
Summed up:
as §1

Compound in the assay “Vandetanib + Crizotinib”: COc1cc2/c(=N/c3ccc(Br)cc3F)nc[nH]c2cc1OCC1CCN(C)CC1 [Vandetanib] + C[C@@H](Oc1cc(-c2cnn(C3CCNCC3)c2)cnc1N)c1c(Cl)ccc(F)c1Cl [Crizotinib] (partner 1 µM)
An outline of the steps:
as §1

Compound in the assay “Vandetanib + Phenformin”: COc1cc2/c(=N/c3ccc(Br)cc3F)nc[nH]c2cc1OCC1CCN(C)CC1 [Vandetanib] + N=C(N)NC(=N)NCCc1ccccc1 [Phenformin] (partner 250 µM)
An outline of the steps:
as §1

Turning to NCI-H1355, the relative viability came to 0.747 with CUDC-101 + Dasatinib (first compound 0.01 µM); 0.672 in the assay with CUDC-101 + Dasatinib (first compound 0.03162 µM); 0.717 with CUDC-101 + Dasatinib (first compound 0.1 µM); 0.741 in the assay with CUDC-101 + Dasatinib (first compound 0.3162 µM); 0.523 with CUDC-101 + Dasatinib (first compound 1 µM); 0.437 with Vandetanib + Palbociclib (first compound 0.02 µM). Besides, the relative viability in the assay with Vandetanib + Palbociclib (first compound 0.06325 µM) worked out at 0.399; with Vandetanib + Palbociclib (first compound 0.2 µM), 0.408; with Vandetanib + Palbociclib (first compound 0.6325 µM) it was 0.387; with Vandetanib + Palbociclib (first compound 2 µM), 0.373; in the assay with Vandetanib + Crizotinib (first compound 0.02 µM), 1.03; with Vandetanib + Crizotinib (first compound 0.06325 µM), 0.976. Further, the relative viability stood at 0.637 with Vandetanib + Crizotinib (first compound 0.2 µM); 0.996 in the assay with Vandetanib + Crizotinib (first compound 0.6325 µM); 1.04 in the assay with Vandetanib + Crizotinib (first compound 2 µM); 0.436 with Vandetanib + Phenformin (first compound 0.02 µM); 0.461 with Vandetanib + Phenformin (first compound 0.06325 µM); 0.431 with Vandetanib + Phenformin (first compound 0.2 µM). The relative viability worked out at 0.448 with Vandetanib + Phenformin (first compound 0.6325 µM) and 0.406 in the assay with Vandetanib + Phenformin (first compound 2 µM).
With NCI-H1437, the relative viability in the assay with CUDC-101 + Dasatinib (first compound 0.01 µM) was found to be 0.384; in the assay with CUDC-101 + Dasatinib (first compound 0.03162 µM), 0.364; in the assay with CUDC-101 + Dasatinib (first compound 0.1 µM), 0.457; with CUDC-101 + Dasatinib (first compound 0.3162 µM), 0.432; with CUDC-101 + Dasatinib (first compound 1 µM), 0.402; with Vandetanib + Palbociclib (first compound 0.02 µM), 0.295. Moreover, the relative viability in the assay with Vandetanib + Palbociclib (first compound 0.06325 µM) is 0.32; in the assay with Vandetanib + Palbociclib (first compound 0.2 µM), 0.346; in the assay with Vandetanib + Palbociclib (first compound 0.6325 µM), 0.302; with Vandetanib + Palbociclib (first compound 2 µM), 0.341; with Vandetanib + Crizotinib (first compound 0.02 µM) it was 0.842; with Vandetanib + Crizotinib (first compound 0.06325 µM), 0.894. Moreover, the relative viability with Vandetanib + Crizotinib (first compound 0.2 µM) is 0.895; with Vandetanib + Crizotinib (first compound 0.6325 µM), 0.958; in the assay with Vandetanib + Crizotinib (first compound 2 µM) it was 0.954; with Vandetanib + Phenformin (first compound 0.02 µM) it was 0.271; with Vandetanib + Phenformin (first compound 0.06325 µM) it was 0.3; with Vandetanib + Phenformin (first compound 0.2 µM), 0.345. Besides, the relative viability in the assay with Vandetanib + Phenformin (first compound 0.6325 µM) worked out at 0.272; in the assay with Vandetanib + Phenformin (first compound 2 µM), 0.299.
In the case of NCI-H1650, the relative viability with CUDC-101 + Dasatinib (first compound 0.01 µM) worked out at 0.302; in the assay with CUDC-101 + Dasatinib (first compound 0.03162 µM), 0.292; with CUDC-101 + Dasatinib (first compound 0.1 µM) it was 0.321; with CUDC-101 + Dasatinib (first compound 0.3162 µM), 0.324; with CUDC-101 + Dasatinib (first compound 1 µM), 0.221; with Vandetanib + Palbociclib (first compound 0.02 µM) it was 0.34. In addition, the relative viability with Vandetanib + Palbociclib (first compound 0.06325 µM) was determined as 0.291; with Vandetanib + Palbociclib (first compound 0.2 µM) it was 0.289; with Vandetanib + Palbociclib (first compound 0.6325 µM), 0.318; with Vandetanib + Palbociclib (first compound 2 µM), 0.244; in the assay with Vandetanib + Crizotinib (first compound 0.02 µM) it was 0.943; in the assay with Vandetanib + Crizotinib (first compound 0.06325 µM), 0.806. For the same cell line, the relative viability amounted to 0.736 with Vandetanib + Crizotinib (first compound 0.6325 µM); 0.581 with Vandetanib + Crizotinib (first compound 2 µM); 0.409 with Vandetanib + Phenformin (first compound 0.02 µM); 0.332 in the assay with Vandetanib + Phenformin (first compound 0.06325 µM); 0.251 with Vandetanib + Phenformin (first compound 0.2 µM); 0.329 with Vandetanib + Phenformin (first compound 0.6325 µM). Further, in the assay with Vandetanib + Phenformin (first compound 2 µM), the relative viability came out at 0.321.
NCI-H1651: the relative viability with CUDC-101 + Dasatinib (first compound 0.01 µM) was 0.378; with CUDC-101 + Dasatinib (first compound 0.03162 µM) it was 0.335; with CUDC-101 + Dasatinib (first compound 0.1 µM), 0.434; with CUDC-101 + Dasatinib (first compound 0.3162 µM), 0.39; with CUDC-101 + Dasatinib (first compound 1 µM), 0.384; in the assay with Vandetanib + Palbociclib (first compound 0.02 µM), 0.484. The relative viability in the assay with Vandetanib + Palbociclib (first compound 0.06325 µM) is 0.501; in the assay with Vandetanib + Palbociclib (first compound 0.2 µM), 0.515; in the assay with Vandetanib + Palbociclib (first compound 0.6325 µM), 0.515; with Vandetanib + Palbociclib (first compound 2 µM), 0.446; with Vandetanib + Crizotinib (first compound 0.02 µM) it was 0.837; with Vandetanib + Crizotinib (first compound 0.06325 µM), 0.851. The relative viability in the assay with Vandetanib + Crizotinib (first compound 0.2 µM) amounted to 0.831; in the assay with Vandetanib + Crizotinib (first compound 0.6325 µM), 0.898; with Vandetanib + Crizotinib (first compound 2 µM), 0.781; with Vandetanib + Phenformin (first compound 0.02 µM) it was 0.304; in the assay with Vandetanib + Phenformin (first compound 0.06325 µM), 0.299; with Vandetanib + Phenformin (first compound 0.2 µM) it was 0.325. Besides, the values for the relative viability with Vandetanib + Phenformin (first compound 0.6325 µM) and in the assay with Vandetanib + Phenformin (first compound 2 µM) were 0.353 and 0.311, respectively.
